# In patent US8900591B2, “Vaccines comprising mutant GPCRs with increased conformational stability relative to parent receptors” (Heptares Therapeutics Limited, priority 2010, dated 2014):
# Experiments:
# [1] = tested on: 5-HT2A, 5-HT2B and 5-HT2C serotonin receptors; conditions: cited from earlier work
# [2] = tested on: endogenous β1AR in untransfected HEK293s; experiment: CRE-luc reporter assay on untransfected HEK293 cells; type: cell-based, human; conditions: 1 μM forskolin, non-transfected cells
# From the text: One read-out that can be employed to assess the functional activity of the resulting sera is the impact on cAMP signalling. The CRE-luc reporter assay was employed where the CRE response from activation of AC-cAMP-PKA pathway is the read-out.
# The first interim bleeds were initially evaluated only on transfected cells to assess if any functional response could be observed at this stage of immunisation. […].
Structure (SMILES),potency for 5-HT2C receptors relative to 5-HT2A [1],selectivity for 5-HT2A over 5-HT2B [1],CRE-luc response to forskolin stimulation [2]
C[C@@H](N)Cc1c2ccoc2c(Br)c2ccoc12 [Bromo-DragonFLY],twice as potent,less than 5 ×,–
C=C[C@@]1(C)CC(=O)[C@]2(O)[C@@]3(C)[C@@H](O)CCC(C)(C)[C@@H]3[C@H](O)[C@H](OC(C)=O)[C@@]2(C)O1 [forskolin],–,–,"~20,000 RLU"
